Results on 15 compounds are retold here after patent US7186545B2, “Probiotic strains from Lactobacillus salivarius and antimicrobial agents obtained therefrom” (Enterprise Ireland, priority 1997, dated 2007).

The subject of the experiment is Lactobacillus isolates. Briefly: Antibiotic disc susceptibility assay. The following applies: sensitive if zone of 1 mm or greater.
Protocol: Antibiotic sensitivity profiles of the isolates were determined using the ‘disc susceptibility’ assay. Cultures were grown up in the appropriate broth medium for 24–48 h, spread-plated (100 μl) onto agar media and discs containing known concentrations of the antibiotics were placed onto the agar. Strains were examined for antibiotic sensitivity after 1–2 days incubation at 37° under anaerobic conditions. Strains were considered sensitive if zones of inhibition of 1 mm or greater were seen.
Turning to `NCC[C@H](O)C(=O)N[C@@H]1C[C@H](N)[C@@H](O[C@H]2O[C@H](CN)[C@@H](O)[C@H](O)[C@H]2O)[C@H](O)[C@H]1O[C@H]1O[C@H](CO)[C@@H](O)[C@H](N)[C@H]1O` [amikacin], the “Sensitivity of the lactobacilli to the antibiotic” value (shortened to “Sensitivity of the lactobacilli”) is “resistant”.

Regarding `CC1(C)S[C@@H]2[C@H](NC(=O)[C@H](N)c3ccc(O)cc3)C(=O)N2[C@H]1C(=O)O` [amoxycillin], the “Sensitivity of the lactobacilli” value is given as “sensitive”. With `CC1(C)S[C@@H]2[C@H](NC(=O)[C@H](N)c3ccccc3)C(=O)N2[C@H]1C(=O)O` [ampicillin] the entry was “sensitive”; with `CO/N=C(\C(=O)N[C@@H]1C(=O)N2C(C(=O)O)=C(COC(C)=O)CS[C@H]12)c1csc(N)n1` [ceftaxime], “sensitive”; with `CO/N=C(\C(=O)N[C@@H]1C(=O)N2C(C(=O)O)=CCS[C@H]12)c1csc(N)n1` [ceftizoxime], “Variable sensitivity”. With `CO/N=C(\C(=O)N[C@@H]1C(=O)N2C(C(=O)O)=C(CSc3nc(=O)c(=O)[nH]n3C)CS[C@H]12)c1csc(N)n1` [ceftriaxone] the entry was “sensitive”; with `CC1=C(C(=O)O)N2C(=O)[C@@H](NC(=O)[C@H](N)C3=CCC=CC3)[C@H]2SC1` [cephradine], “sensitive”. Take `O=C(N[C@H](CO)[C@H](O)c1ccc([N+](=O)[O-])cc1)C(Cl)Cl` [chloramphenicol]: the “Sensitivity of the lactobacilli” value was “sensitive”. With `O=C(O)c1cn(C2CC2)c2cc(N3CCNCC3)c(F)cc2c1=O` [ciprofloxacin] the entry was “sensitive”. Next, `CCn1cc(C(=O)O)c(=O)c2ccc(C)nc21` [nalidixic acid]: “resistant”; `CCN[C@@H]1C[C@H](N)[C@@H](O[C@H]2OC(CN)=CC[C@H]2N)[C@H](O)[C@H]1O[C@H]1OC[C@](C)(O)[C@H](NC)[C@H]1O` [netilmicin]: “resistant”; `COc1cc(Cc2cnc(N)nc2N)cc(OC)c1OC` [trimethoprim]: “resistant”. With `CN[C@H](CC(C)C)C(=O)N[C@H]1C(=O)N[C@@H](CC(N)=O)C(=O)N[C@H]2C(=O)N[C@H]3C(=O)N[C@H](C(=O)N[C@H](C(=O)O)c4cc(O)cc(O)c4-c4cc3ccc4O)[C@H](O)c3ccc(c(Cl)c3)Oc3cc2cc(c3O[C@@H]2O[C@H](CO)[C@@H](O)[C@H](O)[C@H]2O[C@H]2C[C@](C)(N)[C@H](O)[C@H](C)O2)Oc2ccc(cc2Cl)[C@H]1O` [vancomycin] the entry was “resistant”; with gentamicin, “resistant”.

For the compound teicoplanin, the “Sensitivity of the lactobacilli” value is on record as “Variable sensitivity”.
